Data as given in patent US9290440B2, “Bicyclic compound” (TOA EIYO LTD., priority 2012, dated 2016).

Molecular target: T1, human sGC α subunit and β subunit (Homo sapiens, UniProt Q02153)
T1 construct: expressed in transfected cells
T1 sequence (Q02153 1-619): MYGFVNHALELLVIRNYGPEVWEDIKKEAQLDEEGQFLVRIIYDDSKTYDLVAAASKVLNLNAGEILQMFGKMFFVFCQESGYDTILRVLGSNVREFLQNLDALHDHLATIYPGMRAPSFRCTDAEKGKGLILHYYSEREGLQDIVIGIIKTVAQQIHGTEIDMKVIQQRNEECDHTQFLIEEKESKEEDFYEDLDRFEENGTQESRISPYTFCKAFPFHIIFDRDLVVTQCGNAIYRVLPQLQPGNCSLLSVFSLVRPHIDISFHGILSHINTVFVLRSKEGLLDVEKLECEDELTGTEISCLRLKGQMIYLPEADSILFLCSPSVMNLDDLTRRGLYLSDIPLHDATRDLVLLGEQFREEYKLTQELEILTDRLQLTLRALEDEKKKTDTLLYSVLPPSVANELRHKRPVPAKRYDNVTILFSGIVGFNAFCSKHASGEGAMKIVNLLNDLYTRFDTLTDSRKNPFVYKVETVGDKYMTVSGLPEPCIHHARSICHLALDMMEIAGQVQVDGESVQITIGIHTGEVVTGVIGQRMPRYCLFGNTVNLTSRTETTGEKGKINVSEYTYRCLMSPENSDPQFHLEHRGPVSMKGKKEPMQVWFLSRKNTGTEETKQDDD
T1 sequence (Q02108 1-690 partner): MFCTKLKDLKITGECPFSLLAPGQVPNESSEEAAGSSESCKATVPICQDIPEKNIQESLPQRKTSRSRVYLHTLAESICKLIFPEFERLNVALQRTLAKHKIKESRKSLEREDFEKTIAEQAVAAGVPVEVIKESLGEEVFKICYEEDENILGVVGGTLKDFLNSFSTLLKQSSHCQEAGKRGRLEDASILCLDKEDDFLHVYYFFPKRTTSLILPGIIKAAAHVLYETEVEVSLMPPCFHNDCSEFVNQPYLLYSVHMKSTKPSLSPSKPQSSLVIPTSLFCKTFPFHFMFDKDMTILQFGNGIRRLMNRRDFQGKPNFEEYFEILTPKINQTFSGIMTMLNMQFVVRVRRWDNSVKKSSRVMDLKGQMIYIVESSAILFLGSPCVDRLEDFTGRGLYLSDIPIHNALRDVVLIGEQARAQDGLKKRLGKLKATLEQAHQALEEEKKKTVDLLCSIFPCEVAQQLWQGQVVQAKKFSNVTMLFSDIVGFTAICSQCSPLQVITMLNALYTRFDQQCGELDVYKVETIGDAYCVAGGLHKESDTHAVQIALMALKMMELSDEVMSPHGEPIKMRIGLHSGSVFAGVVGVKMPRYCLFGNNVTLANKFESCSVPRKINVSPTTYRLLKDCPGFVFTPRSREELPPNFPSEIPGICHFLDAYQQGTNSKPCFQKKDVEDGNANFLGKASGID
Experiment: Heme-independent property of sGC activating function (EC50 ratio, CHO-K1 cells expressing human sGC and mouse CNGA2)
Format: cell-based
Details: EC50 in the absence of ODQ divided by EC50 in the presence of ODQ, sGC activation
Experimental: For the assay, Chinese hamster ovary cells (CHO-K1 cells) in which human sGC α subunit and β subunit and mouse cyclic nucleotide gated channel (CNGA2) are stably expressed were used.
CHO-K1 cells in which human sGC and mouse CNGA2 are stably expressed were cultured at 37° C. in F-12 medium containing 10% (v/v) fetal bovine serum (FBS), penicillin (100 U/mL), streptomycin (100 μg/mL), G418 (250 μg/mL), and zeocin (250 μg/mL). The cells were suspended in the culture medium and seeded onto a 96-well plate, and then cultured at 37° C. for 24 hours. After washing with assay buffer 1 (140 mmol/L sodium chloride, 5 mmol/L potassium chloride, 0.5 mmol/L magnesium chloride, 0.01 mmol/L calcium chloride, 10 mmol/L glucose, 0.4 mmol/L magnesium sulfate, 10 mmol/L 4-(2-hydroxyethyl)piperazin-1-ylethane sulfonic acid, and 125 μmol/L sulfinpyrazone, pH 7.4), an indicator solution in which FURA2-AM as a fluorescent Ca^2+ indicator is dissolved at concentration of 5 μmol/L in assay buffer 1 was added followed by culture for 60 minutes at 37° C. The indicator solution was removed. After washing with assay buffer 1, the test compound solution was added and incubated for 10 minutes at room temperature. The plate was placed in a fluorometer (Flex Station II, Molecular Devices, LLC), and then the intracellular calcium concentration was measured as fluorescence intensity ratio which is obtained from each excitation wavelength (excitation wavelength of 340 nm and 380 nm and detection wavelength of 510 nm).
The test compound solution was prepared by dissolving each of the test compounds in DMSO to a concentration of 10 mmol/L, and then adding the assay buffer 2 (140 mmol/L sodium chloride, 5 mmol/L potassium chloride, 0.5 mmol/L magnesium chloride, 1 mmol/L calcium chloride, 10 mmol/L glucose, 0.4 mmol/L magnesium sulfate, 10 mmol/L 4-(2-hydroxyethyl)piperazin-1-ylethane sulfonic acid, 125 μmol/L sulfinpyrazone, 100 μmol/L isobutylmethylxanthine, 10 μmol/L 1H-[1,2,4]-oxadiazole[4,3-a]quinoxalin-1-one (hereinbelow, ODQ), pH 7.4) for dilution to have test concentration of 10 μmol/L. For the evaluation of a case in which ODQ is not contained, the same evaluation was performed except that ODQ is excluded from assay buffer 2. As a control solution, a DMSO solution was used instead of the test compound solution.
The activity of the test compound corresponds to the increase ratio (%) of the sGC activity at the time of adding the test compound solution with respect to the sGC activity at the time of adding the control solution, and it was calculated by dividing the fluorescence intensity ratio at the time of adding the test compound by the fluorescence intensity ratio of the control solution and subtracting the sGC activity (100%) at the time of adding the control solution.
For the representative compounds, activity was measured in the same manner as Test Example 1 at each test concentration of 0.0001, 0.001, 0.003, 0.01, 0.03, 0.1, 1, and 10 μmol/L.
The degree of heme-independent property of each test compound with regard to sGC activating function was obtained by dividing, for EC50 measured from the concentration-activation curve which has been established from the above, EC50 in the absence of ODQ by EC50 in the presence of ODQ. Specifically, the smaller the EC50 ratio is, the less the change in sGC activating function is, the change in the function being caused by the presence or absence of ODQ, and thus it is found to be more heme-independent.
EC50 value was obtained by measuring the activity of each compound to be tested at concentrations of 0.0001, 0.001, 0.003, 0.01, 0.03, 0.1, 1, and 10 μmol/L and performing the calculation using four-parameter logistics model using Assay Explorer (Accelrys).

| EC50 Ratio (ODQ−/ODQ+) | SMILES |
| --- | --- |
| 3.08 | O=C(O)CCCCN(CCc1ccccc1OCc1ccc(CCc2ccccc2)cc1)Cc1ccc(C(=O)O)cc1 [Cinaciguat, reference compound] |
| 1.40 | O=C(O)CCCCN(CCc1ccccc1OCc1ccc(SCc2ccccc2)cc1)C1CCCc2cc(C(=O)O)ccc21 (stereo not drawn) [Example 15, 5-{N-[2-[2-(4-Benzylsulfanylbenzyloxyl)phenyl]ethyl]-N-(4-carboxybutyl)amino}-5,6,7,8-tetrahydronaphthalene-2-carboxylic acid] |
| 1.71 | O=C(O)CCCCN(CCc1ccccc1OCc1cccc2c1CCCC2)C1CCCc2cc(C(=O)O)ccc21 (stereo not drawn) [Example 29, 5-{N-(4-Carboxybutyl)-N-[2-[2-(5,6,7,8-tetrahydronaphthalene-1-ylmethoxy)phenyl]ethyl]amino}-5,6,7,8-tetrahydronaphthalene-2-carboxylic acid] |
